Results from ChEMBL document CHEMBL1201862, “PubChem BioAssay data set” (2004).
Active and inactive are the calls of the source.

Assays:
[1] = molecular target: T1, Peroxisome proliferator-activated receptor gamma (Homo sapiens, UniProt P37231); test: PPARg partial agonists, dose response, cell-based, luminescence, assay provider (AID 504447); type: functional
T1 sequence (P37231 whole entry): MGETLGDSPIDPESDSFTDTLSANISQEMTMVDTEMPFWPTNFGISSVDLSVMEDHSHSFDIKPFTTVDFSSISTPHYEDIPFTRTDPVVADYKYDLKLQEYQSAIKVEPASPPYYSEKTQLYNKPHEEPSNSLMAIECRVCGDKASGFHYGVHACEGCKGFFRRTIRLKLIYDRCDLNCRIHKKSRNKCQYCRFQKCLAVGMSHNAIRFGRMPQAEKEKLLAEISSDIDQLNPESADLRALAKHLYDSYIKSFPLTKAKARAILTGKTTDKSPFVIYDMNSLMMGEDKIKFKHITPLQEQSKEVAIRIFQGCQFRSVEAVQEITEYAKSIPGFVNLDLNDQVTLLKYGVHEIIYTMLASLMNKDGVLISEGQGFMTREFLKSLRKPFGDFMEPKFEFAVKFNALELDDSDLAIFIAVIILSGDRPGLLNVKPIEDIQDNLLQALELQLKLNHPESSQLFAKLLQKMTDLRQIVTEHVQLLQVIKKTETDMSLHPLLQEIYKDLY

[2] = molecular target: T1, Peroxisome proliferator-activated receptor gamma; test: PPARg ligand-binding domain binders, dose response, PPARg partial agonist project, biochemical, fluorescence polarization, PolarScreen (AID 504453)
[3] = molecular target: T1, Peroxisome proliferator-activated receptor gamma; test: PPARg ligand-binding domain binders, dose response, PPARg partial agonist project, biochemical, TR-FRET, LanthaScreen (AID 504446)
[4] = molecular target: Intestinal-type alkaline phosphatase (Homo sapiens, UniProt P09923); test: human intestinal alkaline phosphatase activators, dose response, biochemical, luminescence, uHTS hits (AID 463120); type: functional
[5] = molecular target: T2, Apoptotic protease-activating factor 1 (Homo sapiens, UniProt O14727); type: functional
T2 sequence (O14727 whole entry): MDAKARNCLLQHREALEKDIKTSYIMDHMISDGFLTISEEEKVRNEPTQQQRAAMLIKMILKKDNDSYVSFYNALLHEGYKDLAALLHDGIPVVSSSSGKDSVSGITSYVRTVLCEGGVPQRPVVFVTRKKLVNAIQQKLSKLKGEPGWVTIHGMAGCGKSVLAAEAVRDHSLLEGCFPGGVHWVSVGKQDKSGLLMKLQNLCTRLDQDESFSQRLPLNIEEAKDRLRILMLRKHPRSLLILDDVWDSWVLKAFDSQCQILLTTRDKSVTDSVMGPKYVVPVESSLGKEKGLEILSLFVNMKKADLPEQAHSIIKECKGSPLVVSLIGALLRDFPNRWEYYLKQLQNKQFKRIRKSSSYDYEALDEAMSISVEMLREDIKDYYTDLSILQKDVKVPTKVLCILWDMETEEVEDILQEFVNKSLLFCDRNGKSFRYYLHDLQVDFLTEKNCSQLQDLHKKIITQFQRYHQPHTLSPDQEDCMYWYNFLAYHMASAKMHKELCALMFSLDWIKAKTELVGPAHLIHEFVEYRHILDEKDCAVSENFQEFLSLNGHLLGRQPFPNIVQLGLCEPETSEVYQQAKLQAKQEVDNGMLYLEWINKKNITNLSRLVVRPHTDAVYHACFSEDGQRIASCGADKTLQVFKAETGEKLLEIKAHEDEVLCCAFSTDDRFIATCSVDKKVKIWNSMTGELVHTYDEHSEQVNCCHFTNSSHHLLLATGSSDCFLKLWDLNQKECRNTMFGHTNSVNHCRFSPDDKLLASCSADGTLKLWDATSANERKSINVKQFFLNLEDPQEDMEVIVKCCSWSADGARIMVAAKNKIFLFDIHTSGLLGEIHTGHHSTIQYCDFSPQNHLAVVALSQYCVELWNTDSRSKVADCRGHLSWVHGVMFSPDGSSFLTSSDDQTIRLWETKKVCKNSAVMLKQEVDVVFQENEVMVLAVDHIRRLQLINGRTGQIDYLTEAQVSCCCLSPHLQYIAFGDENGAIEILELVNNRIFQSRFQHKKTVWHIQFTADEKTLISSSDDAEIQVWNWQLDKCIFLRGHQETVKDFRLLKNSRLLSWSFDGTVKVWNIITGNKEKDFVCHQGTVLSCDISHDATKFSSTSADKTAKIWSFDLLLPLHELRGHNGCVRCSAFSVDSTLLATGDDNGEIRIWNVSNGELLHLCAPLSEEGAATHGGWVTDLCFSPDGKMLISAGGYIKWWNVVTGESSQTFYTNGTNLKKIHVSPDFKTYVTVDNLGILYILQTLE

Hexokinase-1 = Hexokinase-1 (Homo sapiens, UniProt P19367); test: hexokinase 1 activators, dose response, selectivity assay for HKDC1 activator project, biochemical (AID 504762); type: functional
Vero = Vero cell cytotoxicity, cytotoxicity control for flavivirus capping enzyme inhibitors (AID 588742); type: functional; conditions: Chlorocebus sabaeus
Hexokinase HKDC1 = molecular target: T3, Hexokinase HKDC1 (Homo sapiens, UniProt Q2TB90); test: HKDC1 hexokinase activators, dose response, biochemical, W721R variant (AID 504730); type: functional
T3 sequence (Q2TB90 whole entry): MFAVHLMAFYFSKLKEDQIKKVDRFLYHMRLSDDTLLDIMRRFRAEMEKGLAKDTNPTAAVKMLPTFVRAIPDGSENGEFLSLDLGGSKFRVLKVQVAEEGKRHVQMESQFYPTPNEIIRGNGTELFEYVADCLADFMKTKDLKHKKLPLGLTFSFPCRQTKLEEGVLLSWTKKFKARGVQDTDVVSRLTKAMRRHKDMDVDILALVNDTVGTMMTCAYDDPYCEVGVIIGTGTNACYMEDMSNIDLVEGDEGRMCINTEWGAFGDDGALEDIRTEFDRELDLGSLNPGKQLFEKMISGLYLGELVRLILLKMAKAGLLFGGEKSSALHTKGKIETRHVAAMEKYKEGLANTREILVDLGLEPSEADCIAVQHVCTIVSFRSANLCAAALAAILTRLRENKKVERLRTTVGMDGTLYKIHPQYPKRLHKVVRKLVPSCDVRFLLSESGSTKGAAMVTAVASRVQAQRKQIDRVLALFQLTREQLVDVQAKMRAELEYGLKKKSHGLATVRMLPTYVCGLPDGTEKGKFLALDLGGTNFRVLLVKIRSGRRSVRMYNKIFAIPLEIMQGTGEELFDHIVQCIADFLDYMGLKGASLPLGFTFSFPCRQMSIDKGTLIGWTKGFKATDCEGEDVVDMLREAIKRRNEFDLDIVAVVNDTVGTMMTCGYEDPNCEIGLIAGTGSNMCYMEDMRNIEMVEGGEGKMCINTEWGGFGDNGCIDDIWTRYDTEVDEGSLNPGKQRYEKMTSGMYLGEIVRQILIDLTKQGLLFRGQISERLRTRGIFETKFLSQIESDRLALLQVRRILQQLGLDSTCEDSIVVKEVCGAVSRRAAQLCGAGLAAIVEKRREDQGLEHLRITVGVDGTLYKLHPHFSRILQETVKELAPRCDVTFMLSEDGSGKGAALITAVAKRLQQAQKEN

Genome polyprotein = Genome polyprotein (dengue virus type 2, UniProt P29990); test: Dengue-2 NS5 methyltransferase inhibitors, primary screen, biochemical, confirmation dose response (AID 588689); type: functional
Protein RecA = molecular target: T4, Protein RecA (Mycobacterium tuberculosis, UniProt P9WHJ3); test: Fluorescence Cell-Free Homogeneous Dose Retest to Identify Inhibitors of RecA-Intein Splicing Activity. [Related pubchem assays (depositor defined):AID2097, AID2223, AID489010, AID492950]; type: functional
T4 sequence (P9WHJ3 whole entry): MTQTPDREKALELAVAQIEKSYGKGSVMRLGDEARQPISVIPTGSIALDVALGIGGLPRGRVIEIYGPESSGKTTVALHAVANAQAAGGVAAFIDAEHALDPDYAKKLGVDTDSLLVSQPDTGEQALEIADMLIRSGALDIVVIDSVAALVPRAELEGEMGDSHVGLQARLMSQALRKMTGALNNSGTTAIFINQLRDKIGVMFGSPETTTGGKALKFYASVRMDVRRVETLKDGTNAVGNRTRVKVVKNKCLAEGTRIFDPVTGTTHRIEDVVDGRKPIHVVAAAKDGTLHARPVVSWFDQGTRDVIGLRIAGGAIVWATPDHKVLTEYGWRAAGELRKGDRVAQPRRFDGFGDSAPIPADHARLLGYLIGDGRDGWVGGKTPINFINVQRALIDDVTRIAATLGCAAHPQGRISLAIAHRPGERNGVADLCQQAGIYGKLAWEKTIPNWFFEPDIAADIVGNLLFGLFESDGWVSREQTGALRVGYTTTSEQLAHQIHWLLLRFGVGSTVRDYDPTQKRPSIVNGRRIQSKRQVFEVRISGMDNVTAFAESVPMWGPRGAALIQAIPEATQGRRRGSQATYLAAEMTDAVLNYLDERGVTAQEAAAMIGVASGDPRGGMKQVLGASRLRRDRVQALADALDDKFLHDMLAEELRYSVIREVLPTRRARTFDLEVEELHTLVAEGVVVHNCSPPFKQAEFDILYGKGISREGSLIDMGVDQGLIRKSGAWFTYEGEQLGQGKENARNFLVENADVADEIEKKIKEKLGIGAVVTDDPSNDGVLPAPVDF

[6] = molecular target: G-protein coupled receptor 55 (Homo sapiens, UniProt Q9Y2T6); test: SAR Analysis of Selective Antagonists of GPR55 using an Image-Based Assay - Set 4. [Related pubchem assays (depositor defined):AID2013, AID2026]; type: functional;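 note: antagonism of response to 5 µM lysophosphatidylinositol agonist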
Cannabinoid receptor 1 [7] = molecular target: T5, Cannabinoid receptor 1 (Homo sapiens, UniProt P21554); test: SAR analysis of agonists of the Cannabinoid Receptor 1 using an Image-Based Assay - Set 4. [Related pubchem assays (depositor defined):AID2013, AID2026]; type: functional
Cannabinoid receptor 1 [8] = molecular target: T5, Cannabinoid receptor 1; test: SAR analysis of antagonists of the Cannabinoid Receptor 1 using an Image-Based Assay - Set 4. [Related pubchem assays (depositor defined):AID2013, AID2026]; type: functional
[9] = molecular target: T6, G-protein coupled receptor 35 (Homo sapiens, UniProt Q9HC97); test: SAR analysis of Antagonists of the GPR35 Receptor using an Image-Based Assay - Set 6. [Related pubchem assays (depositor defined):AID2013, AID2026]; type: functional
Cannabinoid receptor 2 [10] = molecular target: T7, Cannabinoid receptor 2 (Homo sapiens, UniProt P34972); test: SAR analysis of antagonists of the Cannabinoid Receptor 2 using an Image-Based Assay - Set 3. [Related pubchem assays (depositor defined):AID2013, AID2026]; type: functional
[11] = molecular target: T6, G-protein coupled receptor 35; test: SAR analysis of Agonists of the GPR35 Receptor using an Image-Based Assay - Set 4. [Related pubchem assays (depositor defined):AID2013, AID2026]; type: functional
Cannabinoid receptor 2 [12] = molecular target: T7, Cannabinoid receptor 2; test: SAR analysis of agonists of the Cannabinoid Receptor 2 using an Image-Based Assay - Set 3. [Related pubchem assays (depositor defined):AID2013, AID2026]; type: functional

T5 sequence (P21554 whole entry): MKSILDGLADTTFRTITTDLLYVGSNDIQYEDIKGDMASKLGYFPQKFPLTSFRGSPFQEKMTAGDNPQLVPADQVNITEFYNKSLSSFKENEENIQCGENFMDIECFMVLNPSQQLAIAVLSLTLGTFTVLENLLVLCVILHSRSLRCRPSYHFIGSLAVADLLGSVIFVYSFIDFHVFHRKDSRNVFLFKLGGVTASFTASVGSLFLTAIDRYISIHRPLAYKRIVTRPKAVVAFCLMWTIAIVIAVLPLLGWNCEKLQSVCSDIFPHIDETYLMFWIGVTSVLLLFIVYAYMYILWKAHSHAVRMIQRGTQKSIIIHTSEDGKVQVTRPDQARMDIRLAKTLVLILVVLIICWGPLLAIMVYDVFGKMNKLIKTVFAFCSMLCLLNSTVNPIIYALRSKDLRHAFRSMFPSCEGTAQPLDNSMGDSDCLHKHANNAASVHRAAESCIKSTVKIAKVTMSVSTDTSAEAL
T7 sequence (P34972 whole entry): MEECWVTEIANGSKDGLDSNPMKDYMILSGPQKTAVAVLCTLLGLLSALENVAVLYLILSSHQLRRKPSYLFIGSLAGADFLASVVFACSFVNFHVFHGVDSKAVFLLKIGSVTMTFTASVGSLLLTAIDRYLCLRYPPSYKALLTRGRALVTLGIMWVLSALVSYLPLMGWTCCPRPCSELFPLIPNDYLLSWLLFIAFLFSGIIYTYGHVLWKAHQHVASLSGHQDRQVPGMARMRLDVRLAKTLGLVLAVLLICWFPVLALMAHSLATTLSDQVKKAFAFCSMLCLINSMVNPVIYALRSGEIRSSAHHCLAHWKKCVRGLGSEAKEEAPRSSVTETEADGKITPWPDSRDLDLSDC
T6 sequence (Q9HC97 whole entry): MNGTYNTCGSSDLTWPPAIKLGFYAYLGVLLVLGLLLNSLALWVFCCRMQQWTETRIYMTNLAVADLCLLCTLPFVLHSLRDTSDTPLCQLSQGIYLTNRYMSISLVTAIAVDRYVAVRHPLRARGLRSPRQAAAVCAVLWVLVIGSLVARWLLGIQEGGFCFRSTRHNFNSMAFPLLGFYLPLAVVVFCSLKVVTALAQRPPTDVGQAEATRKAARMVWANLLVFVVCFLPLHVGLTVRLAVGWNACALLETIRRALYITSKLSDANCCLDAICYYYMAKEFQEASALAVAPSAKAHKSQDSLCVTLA
Sequence of Genome polyprotein (P29990 2492-3391 limits assumed): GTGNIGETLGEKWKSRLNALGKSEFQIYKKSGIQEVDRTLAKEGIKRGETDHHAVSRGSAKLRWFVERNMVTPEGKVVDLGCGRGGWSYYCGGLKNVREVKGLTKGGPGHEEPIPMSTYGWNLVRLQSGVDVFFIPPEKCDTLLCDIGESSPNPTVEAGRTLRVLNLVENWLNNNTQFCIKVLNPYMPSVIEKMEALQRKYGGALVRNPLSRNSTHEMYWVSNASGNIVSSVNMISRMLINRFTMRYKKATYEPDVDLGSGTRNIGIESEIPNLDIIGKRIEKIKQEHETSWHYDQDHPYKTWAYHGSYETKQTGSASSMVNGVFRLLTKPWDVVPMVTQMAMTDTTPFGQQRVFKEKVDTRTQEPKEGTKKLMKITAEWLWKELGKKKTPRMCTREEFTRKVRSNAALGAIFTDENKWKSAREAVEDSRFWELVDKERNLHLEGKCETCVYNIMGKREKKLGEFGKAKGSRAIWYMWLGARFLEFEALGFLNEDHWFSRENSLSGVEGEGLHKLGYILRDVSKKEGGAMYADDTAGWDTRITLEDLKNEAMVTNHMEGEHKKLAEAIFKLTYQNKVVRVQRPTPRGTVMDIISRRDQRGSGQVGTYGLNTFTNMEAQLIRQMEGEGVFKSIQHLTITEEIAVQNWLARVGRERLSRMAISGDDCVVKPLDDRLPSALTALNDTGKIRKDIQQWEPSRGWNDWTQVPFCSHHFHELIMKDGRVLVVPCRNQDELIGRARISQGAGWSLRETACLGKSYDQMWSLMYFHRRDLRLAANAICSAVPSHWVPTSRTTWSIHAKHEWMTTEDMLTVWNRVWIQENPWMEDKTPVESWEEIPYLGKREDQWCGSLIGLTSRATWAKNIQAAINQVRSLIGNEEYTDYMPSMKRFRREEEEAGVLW
Sequence of Intestinal-type alkaline phosphatase (P09923 whole entry): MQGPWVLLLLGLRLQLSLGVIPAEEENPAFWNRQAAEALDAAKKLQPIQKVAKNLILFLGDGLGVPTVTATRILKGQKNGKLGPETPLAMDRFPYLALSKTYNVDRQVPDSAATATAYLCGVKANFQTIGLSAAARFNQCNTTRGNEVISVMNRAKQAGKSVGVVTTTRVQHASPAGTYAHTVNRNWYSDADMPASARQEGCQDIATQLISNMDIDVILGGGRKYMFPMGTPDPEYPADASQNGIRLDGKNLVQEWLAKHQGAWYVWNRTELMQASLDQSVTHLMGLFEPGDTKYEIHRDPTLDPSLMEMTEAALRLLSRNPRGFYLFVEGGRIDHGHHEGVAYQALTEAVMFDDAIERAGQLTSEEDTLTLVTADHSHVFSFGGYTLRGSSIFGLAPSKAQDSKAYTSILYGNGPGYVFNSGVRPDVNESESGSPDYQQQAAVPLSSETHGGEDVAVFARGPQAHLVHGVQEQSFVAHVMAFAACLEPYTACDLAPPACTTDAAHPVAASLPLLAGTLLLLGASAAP
Sequence of Hexokinase-1 (P19367 whole entry): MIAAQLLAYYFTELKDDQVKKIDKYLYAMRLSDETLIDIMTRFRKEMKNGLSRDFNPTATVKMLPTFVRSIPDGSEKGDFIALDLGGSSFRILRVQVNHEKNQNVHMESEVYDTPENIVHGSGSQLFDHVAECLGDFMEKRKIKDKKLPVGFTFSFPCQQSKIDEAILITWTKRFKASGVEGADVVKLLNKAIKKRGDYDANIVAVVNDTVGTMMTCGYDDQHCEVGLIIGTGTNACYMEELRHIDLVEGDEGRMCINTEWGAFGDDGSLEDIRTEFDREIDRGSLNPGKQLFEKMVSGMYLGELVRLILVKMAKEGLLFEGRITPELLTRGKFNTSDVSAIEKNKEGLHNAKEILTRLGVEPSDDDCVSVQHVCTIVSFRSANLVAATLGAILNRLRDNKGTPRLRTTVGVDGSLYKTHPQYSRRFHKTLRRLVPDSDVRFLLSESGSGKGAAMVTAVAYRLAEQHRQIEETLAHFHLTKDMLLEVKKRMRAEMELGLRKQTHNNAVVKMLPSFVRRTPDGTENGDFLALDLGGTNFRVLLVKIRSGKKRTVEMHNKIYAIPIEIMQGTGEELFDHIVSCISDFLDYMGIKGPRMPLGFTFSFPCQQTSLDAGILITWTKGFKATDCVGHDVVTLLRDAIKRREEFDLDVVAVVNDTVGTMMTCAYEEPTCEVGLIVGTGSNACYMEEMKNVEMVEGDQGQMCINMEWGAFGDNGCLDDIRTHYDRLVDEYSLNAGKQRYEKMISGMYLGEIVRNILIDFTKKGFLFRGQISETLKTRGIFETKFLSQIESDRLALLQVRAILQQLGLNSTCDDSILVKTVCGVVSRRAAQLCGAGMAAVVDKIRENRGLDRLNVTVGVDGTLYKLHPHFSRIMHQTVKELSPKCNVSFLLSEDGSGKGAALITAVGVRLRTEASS
Sequence of G-protein coupled receptor 55 (Q9Y2T6 whole entry): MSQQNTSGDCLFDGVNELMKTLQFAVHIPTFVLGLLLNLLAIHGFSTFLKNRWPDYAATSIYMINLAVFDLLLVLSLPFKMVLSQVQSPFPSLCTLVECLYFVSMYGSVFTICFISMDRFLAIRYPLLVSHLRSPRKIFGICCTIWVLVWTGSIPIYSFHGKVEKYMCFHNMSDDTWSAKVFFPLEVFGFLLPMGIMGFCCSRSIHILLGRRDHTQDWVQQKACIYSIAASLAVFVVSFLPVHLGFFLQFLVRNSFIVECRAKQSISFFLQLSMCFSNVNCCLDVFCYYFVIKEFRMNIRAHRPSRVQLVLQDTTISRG

For `CC(=O)N1N=C(c2ccccc2)CC1c1cn(Cc2ccccc2)c2ccccc12` (configuration not stated), the EC50 [1] was 1.2 µM (active), the IC50 [2] was 2 µM (active) and the IC50 [3] was 748 nM (active).
`CCCCCCCn1c(=N)n(CC(=O)c2ccco2)c2ccccc21` was tested, and the EC50 [4] was > 100 µM (inactive).
With `O=C1C(C2=C(O)c3ccccc3C2=O)=Nc2ccccc21` the IC50 [5] was 1.31 µM (active), the EC50 (Hexokinase-1) was 37.1 µM (inactive) and the CC50 (Vero) was 26.6 µM (active). For the same compound, the EC50 (Hexokinase HKDC1) was 24.7 µM (inactive), the IC50 (Genome polyprotein) was 56.9 µM (active) and the EC50 (Protein RecA) was 1.6 µM (active).
For `Cc1nc(N2CCN(C(=O)NCc3ccccc3)CC2)c2c3c(sc2n1)CCCC3`, the IC50 [6] was 13 µM (inactive), the EC50 (Cannabinoid receptor 1 [7]) was > 32 µM (inactive) and the IC50 (Cannabinoid receptor 1 [8]) was 6.66 µM (active). For the same compound, the IC50 [9] was > 32 µM (inactive), the IC50 (Cannabinoid receptor 2 [10]) was > 15.2 µM (inactive) and the EC50 [11] was > 32 µM (inactive). The EC50 (Cannabinoid receptor 2 [12]) was > 32 µM (inactive).
